# Experimental data published in ChEMBL document CHEMBL1139603, “Synthesis and structure-activity relationship of 3-phenyl-3H-quinazolin-4-one derivatives as CXCR3 chemokine receptor antagonists” (Bioorg Med Chem Lett, 2005).
# Target: T1, C-X-C chemokine receptor type 3 (Homo sapiens, UniProt P49682)
# T1 sequence (P49682 whole entry): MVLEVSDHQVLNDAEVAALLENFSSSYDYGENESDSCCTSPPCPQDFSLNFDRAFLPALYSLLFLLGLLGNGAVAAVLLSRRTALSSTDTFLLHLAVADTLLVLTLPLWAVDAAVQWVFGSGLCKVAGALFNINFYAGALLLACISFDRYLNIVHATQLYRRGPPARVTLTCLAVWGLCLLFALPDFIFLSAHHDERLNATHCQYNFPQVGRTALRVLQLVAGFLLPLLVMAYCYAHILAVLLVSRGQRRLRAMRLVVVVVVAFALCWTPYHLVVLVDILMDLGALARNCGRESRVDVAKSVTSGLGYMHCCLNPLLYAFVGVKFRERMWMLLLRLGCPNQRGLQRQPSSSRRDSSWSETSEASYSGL
# Experiment: Inhibitory concentration against […] expressed in human HEK293 cells using [125I]CXCL10 as radioligand
# Assay type: cell-based
row,IC50,SMILES
1,5.8 µM,CCCCCCCCCC(=O)N(CCN(C)C)C(C)c1nc2ccccc2c(=O)n1-c1cccc(C#N)c1 (centres undefined)
2,3.2 µM,CCCCCCCCCC(=O)N(CCN(C)C)C(C)c1nc2ccccc2c(=O)n1-c1ccc(F)cc1 (centres undefined)
3,3.1 µM,CCCCCCCCCC(=O)N(CCN(C)C)C(C)c1nc2ccccc2c(=O)n1-c1ccc(C)cc1 (centres undefined)
4,10 µM,CCCCCCCCCC(=O)N(CCN(C)C)C(C)c1nc2ccccc2c(=O)n1-c1ccccc1C#N (centres undefined)
5,> 100 µM,CCCCCCCCCC(=O)N(CCN(C)C)C(C)c1nc2ccccc2c(=O)n1-c1ccc(O)cc1 (centres undefined)
6,0.93 µM,CCCCCCCCCC(=O)N(CCN(C)C)C(C)c1nc2ccccc2c(=O)n1-c1ccc(C#N)cc1 (centres undefined)
7,3.3 µM,CCCCCCCCCC(=O)N(CCN(C)C)C(C)c1nc2ccccc2c(=O)n1-c1ccc(OC)cc1 (centres undefined)
8,> 100 µM,CCCCCCCCCC(=O)N(CCN(C)C)C(C)c1nc2ccccc2c(=O)n1-c1ccc(C(F)(F)F)cc1 (centres undefined)
9,15 µM,CCCCCCCCCC(=O)N(CCN(C)C)C(C)c1nc2ccccc2c(=O)n1-c1ccccc1 (centres undefined)
